Source: PubChem BioAssay AID330 (DTP/NCI, 2004)
Values joined by “and” are separate entries in the source; they are usually repeats but may differ in a detail not shown here. Equal values may be shown once. Inconclusive results and toxic doses are left out.

System: P388 leukemia ip, CD2F1 mice, survival T/C
Test: NCI In Vivo Anticancer Drug Screen. Data for tumor model P388 Leukemia (intraperitoneal) in CD2F1 (CDF1) mice
Details: endpoint: median survival time, higher = longer survival
In short: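 Mice carrying the transplanted tumor received test compound or vehicle. Survival was recorded in each group, and the value is the treated-group measurement divided by that of the vehicle-treated control group.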

## COc1cc(NCc2ccc3nc(N)nc(N)c3c2C)cc(OC)c1OC
dose: 1.56 mg/kg/injection, schedule: Q01DX009 (ip), vehicle: Klucel (hydroxypropylcellulose) (HPC)
  T/C: 112 % of control
dose: 1.56 mg/kg/injection, schedule: Q01DX009 (ip), vehicle: clinical formulation
  T/C: 111 % of control
dose: 1.88 mg/kg/injection, schedule: Q01DX005 (ip), vehicle: Klucel (hydroxypropylcellulose) (HPC)
  T/C: 121 % of control
dose: 1.88 mg/kg/injection, schedule: Q01DX005 (ip), vehicle: clinical formulation
  T/C: 102 % of control
dose: 1.88 mg/kg/injection, schedule: Q01DX005 (iv), vehicle: clinical formulation
  T/C: 102 % of control
dose: 2.1 mg/kg/injection, schedule: Q01DX009 (ip), vehicle: water
  T/C: 116 % of control
dose: 2.5 mg/kg/injection, schedule: Q01DX009 (ip), vehicle: sodium bicarbonate
  T/C: 124 % of control
dose: 2.52 mg/kg/injection, schedule: Q01DX005 (iv), vehicle: water
  T/C: 103 % of control
dose: 3.12 mg/kg/injection, schedule: Q01DX009 (ip), vehicle: Klucel (hydroxypropylcellulose) (HPC)
  T/C: 124 % of control
dose: 3.12 mg/kg/injection, schedule: Q01DX009 (ip), vehicle: clinical formulation
  T/C: 109 % of control
dose: 3.75 mg/kg/injection, schedule: Q01DX005 (ip), vehicle: Klucel (hydroxypropylcellulose) (HPC)
  T/C: 124 % of control
dose: 3.75 mg/kg/injection, schedule: Q01DX005 (ip), vehicle: clinical formulation
  T/C: 100 % of control
dose: 3.75 mg/kg/injection, schedule: Q01DX005 (iv), vehicle: clinical formulation
  T/C: 103 % of control
dose: 4.19 mg/kg/injection, schedule: Q01DX009 (ip), vehicle: water
  T/C: 120 % of control
dose: 5.0 mg/kg/injection, schedule: Q01DX009 (ip), vehicle: sodium bicarbonate
  T/C: 154 % of control
dose: 5.03 mg/kg/injection, schedule: Q01DX005 (iv), vehicle: water
  T/C: 101 % of control
dose: 6.25 mg/kg/injection, schedule: Q01DX009 (ip), vehicle: clinical formulation
  T/C: 109 % of control
dose: 7.2 mg/kg/injection, schedule: Q01DX009 (ip), vehicle: Klucel (hydroxypropylcellulose) (HPC)
  T/C: 154 % of control
dose: 7.5 mg/kg/injection, schedule: Q01DX005 (ip), vehicle: clinical formulation
  T/C: 100 % of control
dose: 7.5 mg/kg/injection, schedule: Q01DX005 (ip), vehicle: water
  T/C: 123 % of control
dose: 7.5 mg/kg/injection, schedule: Q01DX005 (iv), vehicle: clinical formulation
  T/C: 106 % of control
dose: 7.5 mg/kg/injection, schedule: Q01DX005 (iv), vehicle: water
  T/C: 117 % of control
dose: 7.5 mg/kg/injection, schedule: Q03HX008 (ip), vehicle: water
  T/C: 124 % of control
dose: 7.5 mg/kg/injection, schedule: Q03HX024 (ip), vehicle: water
  T/C: 184 % of control
dose: 8.64 mg/kg/injection, schedule: Q01DX009 (ip), vehicle: Klucel (hydroxypropylcellulose) (HPC)
  T/C: 157 % of control
dose: 10.0 mg/kg/injection, schedule: Q01DX005 (ip), vehicle: Klucel (hydroxypropylcellulose) (HPC)
  T/C: 171 % of control
dose: 10.0 mg/kg/injection, schedule: Q01DX009 (ip), vehicle: sodium bicarbonate
  T/C: 171 % of control and 174 % of control
dose: 10.1 mg/kg/injection, schedule: Q01DX005 (iv), vehicle: water
  T/C: 106 % of control
dose: 12.0 mg/kg/injection, schedule: Q01DX009 (ip), vehicle: Klucel (hydroxypropylcellulose) (HPC)
  T/C: 173 % of control
dose: 12.0 mg/kg/injection, schedule: Q03HX006 (ip), vehicle: Klucel (hydroxypropylcellulose) (HPC)
  T/C: 150 % of control
dose: 12.5 mg/kg/injection, schedule: Q01DX009 (ip), vehicle: Klucel (hydroxypropylcellulose) (HPC)
  T/C: 172 % of control
dose: 12.5 mg/kg/injection, schedule: Q01DX009 (ip), vehicle: clinical formulation
  T/C: 111 % of control
dose: 12.5 mg/kg/injection, schedule: Q01DX009 (oral), vehicle: sodium bicarbonate
  T/C: 110 % of control and 111 % of control
dose: 12.5 mg/kg/injection, schedule: Q04DX003 (ip), vehicle: Klucel (hydroxypropylcellulose) (HPC)
  T/C: 180 % of control
dose: 13.0 mg/kg/injection, schedule: Q04DX002 (ip), vehicle: Klucel (hydroxypropylcellulose) (HPC)
  T/C: 120 % of control
dose: 14.4 mg/kg/injection, schedule: Q01DX009 (ip), vehicle: Klucel (hydroxypropylcellulose) (HPC)
  T/C: 175 % of control
dose: 15.0 mg/kg/injection, schedule: Q01DX005 (ip), vehicle: Klucel (hydroxypropylcellulose) (HPC)
  T/C: 152 % of control
dose: 15.0 mg/kg/injection, schedule: Q01DX005 (ip), vehicle: clinical formulation
  T/C: 103 % of control
dose: 15.0 mg/kg/injection, schedule: Q01DX005 (iv), vehicle: clinical formulation
  T/C: 102 % of control
dose: 15.0 mg/kg/injection, schedule: Q01DX005 (oral), vehicle: water
  T/C: 112 % of control
dose: 15.0 mg/kg/injection, schedule: Q01DX009 (ip), vehicle: water
  T/C: 153 % of control
dose: 16.8 mg/kg/injection, schedule: Q01DX009 (ip), vehicle: water
  T/C: 170 % of control
dose: 20.0 mg/kg/injection, schedule: Q01DX005 (ip), vehicle: Klucel (hydroxypropylcellulose) (HPC)
  T/C: 202 % of control
dose: 20.0 mg/kg/injection, schedule: Q01DX009 (ip), vehicle: Klucel (hydroxypropylcellulose) (HPC)
  T/C: 207 % of control
dose: 20.0 mg/kg/injection, schedule: Q01DX009 (ip), vehicle: sodium bicarbonate
  T/C: 174 % of control and 222 % of control
dose: 20.0 mg/kg/injection, schedule: Q03HX006 (ip), vehicle: Klucel (hydroxypropylcellulose) (HPC)
  T/C: 154 % of control
dose: 20.1 mg/kg/injection, schedule: Q01DX005 (iv), vehicle: water
  T/C: 120 % of control
dose: 21.6 mg/kg/injection, schedule: Q01DX005 (ip), vehicle: Klucel (hydroxypropylcellulose) (HPC)
  T/C: 152 % of control
dose: 24.0 mg/kg/injection, schedule: Q01DX009 (ip), vehicle: Klucel (hydroxypropylcellulose) (HPC)
  T/C: 181 % of control
dose: 25.0 mg/kg/injection, schedule: Q01DX009 (ip), vehicle: Klucel (hydroxypropylcellulose) (HPC)
  T/C: 200 % of control
dose: 25.0 mg/kg/injection, schedule: Q01DX009 (ip), vehicle: clinical formulation
  T/C: 109 % of control
dose: 25.0 mg/kg/injection, schedule: Q01DX009 (oral), vehicle: sodium bicarbonate
  T/C: 112 % of control
dose: 25.0 mg/kg/injection, schedule: Q04DX003 (ip), vehicle: Klucel (hydroxypropylcellulose) (HPC)
  T/C: 192 % of control
dose: 30.0 mg/kg/injection, schedule: Q01DX001 (ip), vehicle: water
  T/C: 108 % of control
dose: 30.0 mg/kg/injection, schedule: Q01DX001 (iv), vehicle: water
  T/C: 111 % of control
dose: 30.0 mg/kg/injection, schedule: Q01DX005 (ip), vehicle: Klucel (hydroxypropylcellulose) (HPC)
  T/C: 189 % of control
dose: 30.0 mg/kg/injection, schedule: Q01DX005 (ip), vehicle: clinical formulation
  T/C: 100 % of control
dose: 30.0 mg/kg/injection, schedule: Q01DX005 (iv), vehicle: clinical formulation
  T/C: 105 % of control
dose: 30.0 mg/kg/injection, schedule: Q01DX009 (ip), vehicle: water
  T/C: 170 % of control
dose: 30.0 mg/kg/injection, schedule: Q01DX009 (oral), vehicle: water
  T/C: 161 % of control
dose: 30.0 mg/kg/injection, schedule: Q04DX003 (ip), vehicle: water
  T/C: 123 % of control
dose: 33.3 mg/kg/injection, schedule: Q01DX009 (ip), vehicle: Klucel (hydroxypropylcellulose) (HPC)
  T/C: 218 % of control
dose: 33.3 mg/kg/injection, schedule: Q03HX006 (ip), vehicle: Klucel (hydroxypropylcellulose) (HPC)
  T/C: 159 % of control
dose: 33.6 mg/kg/injection, schedule: Q01DX009 (ip), vehicle: water
  T/C: 175 % of control
dose: 36.0 mg/kg/injection, schedule: Q01DX005 (ip), vehicle: Klucel (hydroxypropylcellulose) (HPC)
  T/C: 195 % of control
dose: 40.0 mg/kg/injection, schedule: Q01DX005 (ip), vehicle: Klucel (hydroxypropylcellulose) (HPC)
  T/C: 240 % of control
dose: 40.0 mg/kg/injection, schedule: Q01DX009 (ip), vehicle: Klucel (hydroxypropylcellulose) (HPC)
  T/C: 102 % of control
dose: 40.0 mg/kg/injection, schedule: Q01DX009 (ip), vehicle: sodium bicarbonate
  T/C: 242 % of control and 91 % of control
dose: 50.0 mg/kg/injection, schedule: Q01DX009 (ip), vehicle: Klucel (hydroxypropylcellulose) (HPC)
  T/C: 225 % of control
dose: 50.0 mg/kg/injection, schedule: Q01DX009 (ip), vehicle: clinical formulation
  T/C: 118 % of control
dose: 50.0 mg/kg/injection, schedule: Q01DX009 (oral), vehicle: sodium bicarbonate
  T/C: 191 % of control
dose: 50.0 mg/kg/injection, schedule: Q04DX003 (ip), vehicle: Klucel (hydroxypropylcellulose) (HPC)
  T/C: 201 % of control
dose: 60.0 mg/kg/injection, schedule: Q01DX001 (ip), vehicle: water
  T/C: 104 % of control
dose: 60.0 mg/kg/injection, schedule: Q01DX001 (iv), vehicle: water
  T/C: 113 % of control
dose: 60.0 mg/kg/injection, schedule: Q01DX001 (oral), vehicle: water
  T/C: 120 % of control
dose: 60.0 mg/kg/injection, schedule: Q01DX005 (ip), vehicle: Klucel (hydroxypropylcellulose) (HPC)
  T/C: 176 % of control and 198 % of control
dose: 60.0 mg/kg/injection, schedule: Q01DX005 (ip), vehicle: clinical formulation
  T/C: 100 % of control
dose: 60.0 mg/kg/injection, schedule: Q01DX005 (oral), vehicle: water
  T/C: 153 % of control
dose: 60.0 mg/kg/injection, schedule: Q01DX009 (ip), vehicle: water
  T/C: 170 % of control
dose: 60.0 mg/kg/injection, schedule: Q03HX008 (ip), vehicle: water
  T/C: 120 % of control
dose: 60.0 mg/kg/injection, schedule: Q03HX024 (ip), vehicle: water
  T/C: 115 % of control
dose: 60.0 mg/kg/injection, schedule: Q04DX002 (ip), vehicle: Klucel (hydroxypropylcellulose) (HPC)
  T/C: 151 % of control
dose: 60.0 mg/kg/injection, schedule: Q04DX003 (ip), vehicle: water
  T/C: 115 % of control
dose: 80.0 mg/kg/injection, schedule: Q01DX005 (ip), vehicle: Klucel (hydroxypropylcellulose) (HPC)
  T/C: 96 % of control
dose: 100.0 mg/kg/injection, schedule: Q01DX005 (ip), vehicle: Klucel (hydroxypropylcellulose) (HPC)
  T/C: 116 % of control
dose: 100.0 mg/kg/injection, schedule: Q01DX009 (oral), vehicle: sodium bicarbonate
  T/C: 94 % of control
dose: 100.0 mg/kg/injection, schedule: Q04DX002 (ip), vehicle: Klucel (hydroxypropylcellulose) (HPC)
  T/C: 211 % of control
dose: 100.0 mg/kg/injection, schedule: Q04DX003 (ip), vehicle: Klucel (hydroxypropylcellulose) (HPC)
  T/C: 230 % of control
dose: 120.0 mg/kg/injection, schedule: Q01DX001 (ip), vehicle: water
  T/C: 106 % of control
dose: 120.0 mg/kg/injection, schedule: Q01DX001 (oral), vehicle: water
  T/C: 115 % of control
dose: 120.0 mg/kg/injection, schedule: Q01DX005 (oral), vehicle: water
  T/C: 170 % of control
dose: 120.0 mg/kg/injection, schedule: Q04DX003 (ip), vehicle: water
  T/C: 118 % of control
dose: 200.0 mg/kg/injection, schedule: Q04DX003 (ip), vehicle: Klucel (hydroxypropylcellulose) (HPC)
  T/C: 103 % of control
dose: 240.0 mg/kg/injection, schedule: Q01DX001 (oral), vehicle: water
  T/C: 124 % of control
dose: 480.0 mg/kg/injection, schedule: Q01DX001 (oral), vehicle: water
  T/C: 157 % of control
